Measured values: US12128129B2, “Lactobacillus plantarum for skin care” (SYMRISE AG, priority 2019, dated 2024)

How the values were obtained:
[1] = tested on: HaCaT keratinocytes; experiment: AMP gene expression in keratinocytes grown as mono-layer (real time PCR, TaqMan array); assay type: cell-based, human; conditions: for induction of β-Defensin 3, calculated RQ-value: HaCaT, RQ >2 = relevant induction
Description: Effects of Lactobacillus Strains on AMP Gene Expression in Keratinocytes Grown as Mono-Layer
AMP inductions were measured with real time PCR analysis using Taq-Man® Array fast 96-well plates.
HaCaT keratinocytes were cultivated in EpiLife medium, cascade Biologics, Gibco, incl. HKGS, Gibco, life technologies. Test substances were diluted in equal medium and added in a volume of 2 mL per well on 6-well plates. All samples are tested on 100% confluent cells incubated at 37° C., 5% CO2. After 24 h incubation time all samples were removed and cells washed twice with Dulbecco's Phosphate Buffered Saline with Ca and Mg, Capricorn. RNA isolation was performed using RNeasy® Mini Kit, Qiagen. The procedure has been done as describes in the RNeasy Mini Handbook.
Cells were lysed and precipitated with ethanol, the homogenate was washed three times using the spin column and the mRNA was eluated with purified water. Depending on the sample the procedure was slightly adjusted.
RNA concentration was measured using μCuvetteG 1.0 and BioPhotometer, Eppendorf by measuring the absorption at 260 nm. Control values, like E260/280 or E260/230 were calculated simultaneously. Transcription was done with a minimum of 0.5-1 μg RNA per sample.
Reverse transcription was done using high capacity RNA-to-cDNA Kit, Applied Biosystems. The procedure was based on the provided protocol. All samples were incubated in a PCR Thermocycler, Biometra running 60 min at 37° C. for reverse transcription, followed by 5 min at 95° C. (enzyme inactivation) and holding temperature at 4° C. in reaction room.
Quantitative Real-Time PCR was done using StepOne Plus Fast Real Time PCR Instrument, Applied Biosystems. Initial steps of the RT-PCR included a first heating phase holding for 20 s at 95° C., followed by 40 cycles of cDNA denaturation for 3 s at 95° C. and annealing/elongation at 60° C. for 30 s.
Analysis was done by 2-ACT Method—in detail: • 1. Standardization of Ct values with reference-gen (HPRT) ΔCTvaluegene=CTvaluegene−CTvalueReferencegene (HPRT) • 2. Subtraction of ACT-value of control sample (untreated) and ACT-value (treated) ΔΔCTvaluegene=ΔCTvaluetreated−ΔCTvaluecontrol • 3. Calculation of RQ-Ratio (relative quantification-value) RQ−value=2^−ΔΔCT
A RQ-Value of >2 was defined as relevant induction of a gene.

[2] = tested on: HaCaT keratinocytes; experiment: IL-8 release after S. aureus stimulation of pre-treated keratinocytes (ELISA); assay type: cell-based, human; conditions: 0.25 mg/mL, 48 h pre-treatment
Description: Anti-Inflammatory Effects of Lactobacillus plantarum HEAL 19 and HEAL 99 HaCaT keratinocytes were cultivated in 96-well plates using RPMI-A, medium sterile filtered with L-Glutamine, Capricorn, supplemented with 10% fetal calf serum (FCS), Capricorn. The plates were incubated at 37° C. and 5% CO2. After 24 hours starvation with cell culture medium (RPMI, 1% FCS) the cells were washed once. The anti-inflammatory substances/inactivated bacteria suspensions were suspended in starvation medium, applied and incubated for 24/48 h with parameters described above. Dexamethasone in a concentration of 10 μM was used as positive control. To remove bacterial cells after pre-incubation all wells were washed with cell culture medium three times. IL-1alpha, Gibco, life technologies was dissolved in H2Odest, diluted in starvation medium and pipetted to wells, preferably at a concentration of 30 ng/mL. Alternatively, a heat inactivated Staphylococcus aureus (DSM799) suspension was used as pro-inflammatory agent in a concentration of 0.1 mg/mL-1 mg/mL dry mass. After 8 h incubation the supernatants were separated. All samples were stored at −80° C. until further analyses. IL-8 concentrations were measured with Human CXCL8/IL-8, DuoSet ELISA, Development Systems, R&D Systems. The experimental procedure was performed as described in the provided protocol. […]

[3] = tested on: ex vivo human skin models; experiment: Epidermal filaggrin, involucrin and cytokeratin 14 immunostaining ex vivo; assay type: cell-based; conditions: various concentrations, vs vehicle (DMSO)
Description: Ex Vivo Studies Ex vivo trials were done by Cutech Srl, Italy. Effects of described Lactobacillus strains on various parameters were analyzed in ex vivo skin models. Human skin from abdominal plastic surgery was used. Applications of heat inactivated bacteria suspensions were done systemically or topically, in formulation or solved in cell culture medium Tape stripping may be used. Concentrations and incubation times may vary. All data were processed in terms of mean, standard deviation and standard error of mean (SEM) for each treatment. Epidermal Filaggrin, Involucrin and Cytokeratin 14 For analyses, the models were immune-stained with the selected antibody filaggrin rabbit polyclonal [H-300], involucrin mouse monoclonal (SY5) and/or cytokeratin 14 (CK14) rabbit monoclonal (EPR17350). The amount of the antigen present in each slide was evaluated by estimating the intensity and the distribution of red dye within the epidermis. The obtained data were normalized for the length of the basal lamina.

[4] = tested on: S. aureus (DSM799/ATCC6538); experiment: Inhibition of Staphylococcus aureus growth (growth curves, OD 620 nm); assay type: cell-based; conditions: 0.1 and/or 0.05%, 16 h incubation
Description: Antimicrobial Effects of the Lactobacillus Strains Growth curves of various bacteria were measured photometrically at 620 nm. Inhibition of Staphylococcus aureus: 96-well MTP were prepared according to DIN58940-8 with autoclaved CASO medium (MERCK 1.05459) and test substances dissolved in DMSO or distilled water. The relevant wells were inoculated with S. aureus (DSM799/ATCC6538) using stock cultures maintained in 10% glycerin at −20° C. An inoculum of 1-6×10^6 cfu was added per well. Test substances were analyzed using three or four replicate wells during incubation at 37° C. for 16 hours. Growth curves were determined in each well via absorption at 620 nm using a Sunrise Photometer (Tecan, Austria) and Magellan Software. A concentration of 125 ppm farnesol and 4 ppm triclosan was used as positive control for growth inhibition, both pre-dissolved in DMSO (Merck 802912). For calculation, averages of detected absorptions were calculated and normalized with blank values. These OD values were plotted in function of time for graphical presentation.

[5] = 0.05%, 24 h, gene arrays, induction defined as RQ-value >2

## Lactobacillus plantarum HEAL 19 (DSM 15313) [L. plantarum HEAL 19]
[1]; 0.0125% L. plantarum HEAL 19, 24 h
  induction of β-Defensin 3, calculated RQ-value: 2.3
[1]; [5]
  gene expression of Calprotectin: induced
  gene expression of Lactotransferrin: Significantly induced
  gene expression of Peptidase inhibitor 3: Significantly induced
  gene expression of Psoriasin: Significantly induced
  gene expression of RNase 7: Significantly induced
  gene expression of Secretory leukocyte peptidase inhibitor: Significantly induced
  gene expression of β-Defensin 1: induced
  gene expression of β-Defensin 3: Significantly induced
  gene expression of β-Defensin 4: Significantly induced
[1]; 0.1% L. plantarum HEAL 19, 24 h
  induction of β-Defensin 3, calculated RQ-value: 243.6
[2]
  IL-8 concentration in the medium reduced to, compared to only S. aureus stimulated control: 31%
[3]; topical treatment
  cytokeratin 14 (CK14) production: increased
  involucrin production: increased
[3]
  filaggrin release/contents ex vivo: concentration dependent induction
[4]
  growth of S. aureus (optical density): growth inhibition effects
